In patent US20250276996A1, “CATIONICALLY-ENFRAMED HIGH DENSITY AROMATIC PEPTIDES” (Research Foundation of the City University of New York, priority 2022, published 2025):
“Also recorded” adds a separate entry of the source. Non-standard residues stand in square brackets, D forms with d. No end group written: not given here.

How the values were obtained:
MDBK cells = experiment: Cell survival in serum-free media (AlamarBlue); format: cell-based, bovine; conditions: 1 μM, 5 days serum starvation
Experimental: Serum starvation experiments: Biotin-HDAP2's ability to improve cell viability and function following serum starvation was assessed. For all experiments, MDBK cells were seeded in 35 mm cell culture dishes (5×10^4 cells) in DMEM medium with 10% FBS (Fetal Bovine Serum) for 24 hrs and then incubated in serum-free medium with or without biotin-HDAP2 (1 μM) for 5 days to induce cell death. For quantitative measurements, wells were washed to remove dead cells, and then stained with AlamarBlue for 60 min. Quantitative analysis of dye conversion was measured using a fluorescent plate reader (550 ex/580 em) and cell viability was expressed as folds change (increase or decrease) over scrum-starved untreated cells.
Effects of peptides on cell survival in serum-free media: Cell survival in serum starvation conditions was studied in the presence and absence of biotin-HDAP2 using MDBK cells. Cells were plated at a density of 1-2×10^5 cells/well in 96 well plates in DMEM/10% FBS media. The following day, cells were washed and the medium replaced with DMEM serum-free media in the presence or absence of different concentrations of biotin-HDAP2 and incubated for 5 days. Cell viability was assessed using the Resaruzin (Alamar blue) indicator dye. Quantitative analysis of dye conversion was measured using a fluorescent plate reader (ex/em=550/580 nm) and viability was expressed as fold increase over of untreated cells.

[1] = system: antimycin-induced scratching; experiment: Topical antimycin-induced scratching; format: in vivo, C57BL/6J mice; conditions: 100 μM topical with 200 μM antimycin
Experimental: However, antimycin-induced scratching in mice was […] by biotin-free HDAP2. Dermal administration of antimycin, a mitochondrial Complex III irreversible inhibitor, is known to induce ROS formation and oxidative stress in C fibers of sensory neurons, resulting in severe scratching in mice. Biotin-HDAP2 and biotin-free HDAP2 were tested to see if either can inhibit topical antimycin-induced itching in 12 months old C57BL/6J mice. […] Specifically, 200 μM of topical antimycin in methanol induced itching, which was monitored for 60 min. […] Error bars represent SEM (n=3) **P<0.001. Topical administration of 100 μM of biotin-free HDAP2 with antimycin increased scratching by 2.5 fold. Error bars represent SEM (n=3) ***P<0.0001.

ARPE-19 cells = experiment: Mitochondrial potential in the presence of CCCP (TMRM); format: cell-based; conditions: 10 μM of CCCP
Experimental: Effects of peptides on mitochondrial potential in the presence of Carbonyl cyanide m-chlorophenylhydrazone (CCCP): ARPE-19 cells (ATTC-CRL-2302) (5×10^4 cells) were seeded in 35 mm glass dishes in DMEM/F12 medium with 10% FBS for 24 hr. On the day of the experiment, cells were cultured in DMEM/F12 in the presence of different concentrations of biotin-HDAP2 for 60 min (FIG. 17B). Then, cells were incubated with 10 μM CCCP in the presence of 5 nM TMRM, 100 nM Mito View Green, and 10 μg/ml Hoechst 33342 for 15 min at 37° C. Fluorescent images were immediately obtained with a Nikon Eclipse 50i fluorescence microscope (60× objective) using FITC (Mito View Green), Texas Red (TMRM), and DAPI (Hoechst) filters. Images were collected from three independent experiments, using 4-6 random fields for each treatment group, and imaged and analyzed as described for NR.

Compound: [dR]FF[dR] [biotin-free HDAP2]
- AlamarBlue fluorescence / protection during serum starvation (MDBK cells): did not increase AlamarBlue fluorescence; also recorded: does not protect cells during serum starvation
- increase of scratching [1]: 2.5 fold
- effect on antimycin-induced scratching ([1]; 60 min): potentiated

Compound: N#CC(C#N)=NNc1cccc(Cl)c1 [CCCP, carbonyl cyanide m-chlorophenylhydrazone, reference compound]
- ΔΨm relative to control cells (ARPE-19 cells): 20%
